Test results published in ChEMBL document CHEMBL4342413, “Structure-Activity Relationship Studies of a Novel Class of Transmission Blocking Antimalarials Targeting Male Gametes” (J Med Chem, 2020).
The source made the active and inactive calls. The rule behind the calls is not given here.

Experiments:
Plasmodium falciparum [1] = experiment: Antimalarial activity against Plasmodium falciparum NF54 strain male gametes in human RBC assessed as induction of impairment of exflagellation of male gametes by dual gamete formation assay; format: functional, organism-based
HepG2 [2] = experiment: Cytotoxicity against human HepG2 cells assessed as reduction in cell viability at 50 uM incubated for 48 hrs by Alamar Blue staining based fluorescence assay; format: functional
Plasmodium falciparum [3] = experiment: Antimalarial activity against Plasmodium falciparum NF54 strain male gametes in human RBC incubated for 48 hrs by dual gamete formation assay based HTS assay; format: functional, organism-based; settings: NF54, 48 h
HepG2 [4] = experiment: Cytotoxicity against human HepG2 cells assessed as reduction in cell viability at 10 uM incubated for 48 hrs by Alamar Blue staining based fluorescence assay; settings: hepg2, 48 h
Plasmodium falciparum [5] = experiment: Antimalarial activity against Plasmodium falciparum infected in mosquitoes assessed as inhibition of oocyst formation at 10 uM added 30 mins before mosquito feed by standard membrane feeding assay; format: functional

| EC50 (Plasmodium falciparum [1]; Plasmodium falciparum, NF54) [nM] | EC50 (Plasmodium falciparum [1]) [nM] | SMILES | further results |
| --- | --- | --- | --- |
| > 20000 | – | CC(=O)c1cccc(S(=O)(=O)NCC2(O)CCOc3ccccc32)c1 (racemic) | – |
| 945 | – | O=S(=O)(NCC1(F)CCOc2ccccc21)c1cccc(Br)c1 (racemic) | – |
| – | 149 | COC1(CNS(=O)(=O)c2cccc(Br)c2)CCOc2ccccc21 (racemic) | Activity (HepG2 [4]): Non-Toxic |
| > 10000 | – | O=S(=O)(NCC1(O)CCOc2ccc(O)cc21)c1cccc(Br)c1 (racemic) | – |
| 785 | – | O=S(=O)(NCC1(O)CCOc2ccc(Br)cc21)c1cccc(Br)c1 (racemic) | – |
| – | 128 | O=S(=O)(NCC1(O)CCOc2ccccc21)c1cccc(Br)c1 (racemic) | Activity (HepG2 [4]): Non-Toxic |
| > 25000 | – | COc1cccc2c1OCCC2(O)CNS(=O)(=O)c1cccc(Br)c1 (racemic) | – |
| 118 | – | O=S(=O)(NCC1(O)CCOc2ccccc21)c1cccc(Cl)c1 (racemic) | – |
| 354 | – | COC1(CNS(=O)(=O)c2ccc(Br)s2)CCOc2ccccc21 (racemic) | – |
| > 10000 | – | O=S(=O)(NCC1CCOc2ccccc21)c1cccc(Br)c1 (racemic) | – |
| – | > 2000 | COC1(CNS(=O)(=O)c2cccc(Br)c2)CCOc2ccccc21 (single isomer, unassigned; (+)) | – |
| – | > 2000 | O=S(=O)(NCC1(O)CCOc2ccccc21)c1cccc(Br)c1 (single isomer, unassigned; (+)) | – |
| – | 18 | O=S(=O)(NCC1(O)CCOc2ccccc21)c1cccc(Br)c1 (stereo in doubt; (-)-6) | – |
| – | 59 | COC1(CNS(=O)(=O)c2cccc(Br)c2)CCOc2ccccc21 (stereo in doubt; (-)-74) | – |

The remaining lines, values behind:

| SMILES | EC50 (Plasmodium falciparum [1]; Plasmodium falciparum, NF54) [nM] | EC50 (Plasmodium falciparum [1]) [nM] | further results |
| --- | --- | --- | --- |
| O=S(=O)(NCC1=CCOc2ccccc21)c1ccc(Br)s1 | > 25000 | – | – |
| COc1cccc2c1C(=O)c1c(O)c3c(c(O)c1C2=O)C[C@@](O)(C(=O)CO)C[C@@H]3O[C@H]1C[C@H](N)[C@H](O)[C@H](C)O1 | – | – | Activity (HepG2 [2]): Active |
| O=S(=O)(NCC1(O)CCOc2ccccc21)c1ccccc1Br (racemic) | 344 to 367 | – | EC50 (Plasmodium falciparum [3]): 530 nM |
| O=S(=O)(NCC1(O)CCOc2ccccc21)c1ccc(Br)s1 (racemic) | – | 130 to 292 | Activity (HepG2 [4]): Non-Toxic; EC50 (Plasmodium falciparum [3]): 200 nM; inhibition at 10 µM (Plasmodium falciparum [5]): 99% |
| O=S(=O)(NCC1(O)CCOc2ccccc21)c1ccccc1 (racemic) | 470 | – | – |
| O=S(=O)(NCC1(O)CCOc2cc(F)ccc21)c1cccc(Br)c1 (racemic) | – | 79 | Activity (HepG2 [4]): Non-Toxic |
| O=S(=O)(NCC1CCOc2ccccc21)c1ccc(Br)s1 (racemic) | > 10000 | – | – |
| C=CCOc1ccc2c(c1)C(O)(CNS(=O)(=O)c1cccc(Br)c1)CCO2 (racemic) | > 25000 | – | – |
| O=S(=O)(NCC1(O)CCOc2ccc(Br)cc21)c1ccc(Br)s1 (racemic) | > 1000 | – | – |
| O=S(=O)(NCC1(O)CCOc2ccccc21)c1ccccc1Cl (racemic) | > 1000 | – | – |
| O=S(=O)(NCC1(O)CCOc2ccc(F)cc21)c1cccc(Br)c1 (racemic) | 83 | – | – |
| O=S(=O)(NCC1(O)CCOc2ccccc21)c1ccc(Br)cc1 (racemic) | > 5000 | – | – |
| COc1cccc2c1OCCC2(O)CNS(=O)(=O)c1ccc(Br)s1 (racemic) | > 25000 | – | – |
| O=S(=O)(NCC1(O)CCOc2ccccc21)c1ccc(Cl)cc1 (racemic) | > 1000 | – | – |
| N#Cc1ccc(S(=O)(=O)NCC2(O)CCOc3ccccc32)cc1 (racemic) | > 25000 | – | – |
| O=S(=O)(NCC1(O)CCOc2cc(F)ccc21)c1ccc(Br)s1 (racemic) | 364 | – | – |
| O=S(=O)(NCC1(O)CCOc2ccc(F)cc21)c1ccc(Br)s1 (racemic) | 196 | – | – |
| O=S(=O)(NCC1(O)CC(c2ccccc2)Oc2ccccc21)c1cccc(Br)c1 (racemic) | > 25000 | – | – |
| COc1ccc(S(=O)(=O)NCC2(O)CCOc3ccccc32)cc1 (racemic) | > 25000 | – | – |
| O=S(=O)(NCC1(O)CC(c2ccccc2)Oc2ccccc21)c1ccc(Br)s1 (racemic) | > 25000 | – | – |
| O=S(=O)(NCC1(F)CCOc2ccccc21)c1ccc(Br)s1 (racemic) | > 1000 | – | – |
| O=S(=O)(NCC1(O)CCOc2ccccc21)c1sccc1Br (racemic) | 212 | – | – |
| O=S(=O)(NCC1(O)CCOc2ccccc21)c1ccc(Br)s1 (single isomer, unassigned; (+)) | – | > 1000 | – |
| O=S(=O)(NCC1(O)CCOc2cc(F)ccc21)c1cccc(Br)c1 (single isomer, unassigned; (+)) | – | > 1000 | – |
| O=S(=O)(NCC1(O)CCOc2ccccc21)c1ccc(Br)s1 (single isomer, unassigned; (-)) | – | 46 | – |
| O=S(=O)(NCC1(O)CCOc2cc(F)ccc21)c1cccc(Br)c1 (single isomer, unassigned; (-)) | – | 51 | – |
